Measured values as given in patent US11168131B2, “Antibody molecule-drug conjugates and uses thereof” (priority 2015, dated 2021).

Columns and labels:
[1] = system: P. aeruginosa; assay: Minimal inhibitory concentration (MIC) assay, broth microdilution; assay type: cell-based, Pseudomonas aeruginosa; settings: for MIC (mg/ml) Pae 27853 / MIC (mg/ml) Pae 39324: in the presence of PBS
[2] = system: K. pneumoniae; assay: as above; assay type: cell-based, Klebsiella pneumoniae; settings: in the presence of PBS
[3] = system: E. coli; assay: as above; assay type: cell-based, Escherichia coli; settings: for MIC (mg/ml) Eco 43745: in the presence of PBS
[4] = system: P. aeruginosa; assay: MIC in the presence of 50% human serum (hsMIC); assay type: cell-based, Pseudomonas aeruginosa; settings: for hsMIC/MIC: Pae 27853, ratio of hsMIC to MIC; for 50% hsMIC (μg/ml) Pae 27853: in the presence of 50% human serum
Method: In an embodiment, the MIC is determined in the presence of phosphate-buffered saline (PBS). In an embodiment, the MIC or hsMIC is determined on per ADC basis. In an embodiment, the MIC or hsMIC is determined on per payload or antimicrobial peptide basis.

[5] = system: multiple drug resistant (MDR) strains of P. aeruginosa; assay: Microbial killing assay against multiple drug resistant strains; assay type: cell-based, Pseudomonas aeruginosa; settings: assay as in Example 15; for 50% Killing Activity BAA-2108: MDR P. aeruginosa strain BAA-2108; for 50% Killing Activity BAA-2110: MDR P. aeruginosa strain BAA-2110; for 50% Killing Activity BAA-2114: MDR P. aeruginosa strain BAA-2114; for 50% Killing Activity Pae 27853: P. aeruginosa strain 27853
Method: The microbial killing assay was performed as follows. Bacterial cells were grown aerobically overnight on agar plates at 37° C. Overnight plates were used to seed 30 ml cultures of growth media in 250 ml vented flasks. Cultures were grown aerobically at 37° C., shaking at 150 rpm. Growth was monitored at A600 […] and bacterial cells were harvested at mid-log growth. Ten ml of culture was pelleted at 4000×G for 10 minutes and washed one time with PBS plus 1% BSA before re-suspending in 2 ml PBS+BSA. […] Cultures were diluted to 1×10^4 cells/ml in PBS plus BSA. Test articles were diluted in PBS+1% BSA and 50 μl per concentration tested was loaded into a 96 well polypropylene microtiter plate. Fifty μl of diluted culture was added to all test wells as well as no compound control wells. Plates were shaken and incubated at 37° C., 90 minutes, static. Ten μl from each assay well was plated onto agar plates and incubated at 37° C. overnight. Percent killing was determined by the CFU for test wells compared to the CFU for no compound control wells.

[6] = system: S. aureus; assay: Minimal inhibitory concentration (MIC) assay, broth microdilution; assay type: cell-based, Staphylococcus aureus; settings: in the presence of PBS

| Substance | MIC (mg/ml) Eco 43745 [3] | MIC (mg/ml) Pae 27853 [1] | MIC (mg/ml) Pae 39324 [1] | hsMIC/MIC [4] | 50% hsMIC (μg/ml) Pae 27853 [4] | other results |
| --- | --- | --- | --- | --- | --- | --- |
| RLGNFFRKAKKKIGRGLKKIGQKIKDFLGNLVPRTES [peptide 128] |  |  |  |  |  | MIC μg/ml Pae 27853 [1]: 8 µg/mL |
| GGGGLRRLGRKIAHGIKKYGPTILRIIRIAG [Peptide P293] | 0.004 mg/mL | 8 mg/mL | 2 mg/mL |  |  | MIC (mg/ml) Kpn 700603 [2]: 0.004 mg/mL |
| GGGRGLRRLGRKIAHGVKKYGPTVLRIIKKYG [Peptide P294] | 0.002 mg/mL |  |  |  |  | MIC (mg/ml) Kpn 700603 [2]: 0.008 mg/mL |
| GGGLLGDFFRKSKEKIGKEFKRIVQRIKDFLRNLVPRTES [Peptide P265] | 0.008 mg/mL |  |  | >4 | >128 µg/mL | MIC (mg/ml) Kpn 700603 [2]: >0.128 mg/mL |
| GLRKRLRKFRNKIKEKLKKIGQKIQGLLPKLA [Peptide 33] |  |  |  |  |  | MIC μg/ml Eco 25922 [3]: 8 µg/mL; MIC μg/ml Pae 27853 [1]: 8 µg/mL |
| GGGKFFRKLKKSVKKRAKEFFKKPRVIGVSIPF [Peptide P297] | 0.002 mg/mL | 4 mg/mL | 2 mg/mL | 2 | 8 µg/mL | 50% Killing Activity BAA-2108 [5]: 0.28 µg/mL; 50% Killing Activity BAA-2110 [5]: 0.28 µg/mL; 50% Killing Activity BAA-2114 [5]: 0.07 µg/mL; 50% Killing Activity Pae 27853 [5]: 0.04 µg/mL |
| GAFGNFLKGVAKKAGLKILSIAQCKLFGTC [peptide 70] |  |  |  |  |  | MIC μg/ml Eco 25922 [3]: 4 µg/mL; MIC μg/ml Pae 27853 [1]: 8 µg/mL |
| GIGKFLKKAKKFGKAFVKILKKGGGGSGGGGS [peptide 24] |  |  |  |  |  | MIC μg/ml Pae 27853 [1]: 8 µg/mL |
| GGGKRFKKFFKKLKNSVKKRAKKFFKKPRVIGVSIPF [Peptide P296] | 0.004 mg/mL | 4 mg/mL | 2 mg/mL | 0.25 | 1 µg/mL |  |
| GGGGSGGGGSGIGKFLKKAKKFGKAFVKILKK [peptide 23] |  |  |  |  |  | MIC μg/ml Eco 25922 [3]: 8 µg/mL |
| GGGGIGKFLKKAKKFGKAFVKILKK [Peptide P261] | 0.004 mg/mL |  |  |  |  |  |
| Ceftazadime [reference compound] |  | 1 mg/mL | 1 mg/mL | 1 | 1 µg/mL | MIC (mg/ml) Sau 29213 [6]: 0.004 mg/mL |
| GGGGLRKRLRKFRNKIKEKLKKIGQKIQGLLPKLA [Peptide P271] | 0.004 mg/mL |  |  |  |  |  |
| GIGKFLKKAKKFGKAFVKILKK [peptide 109] |  |  |  |  |  | MIC μg/ml Eco 25922 [3]: 4 µg/mL; MIC μg/ml Pae 27853 [1]: 8 µg/mL |
| GGGGRFKRFRKKFKKLFKKLSPVIPLLHLG [Peptide P295] |  | 4 mg/mL | 4 mg/mL | 0.5 | 2 µg/mL | 50% Killing Activity BAA-2108 [5]: 0.6 µg/mL; 50% Killing Activity BAA-2110 [5]: 0.6 µg/mL; 50% Killing Activity BAA-2114 [5]: 0.14 µg/mL; 50% Killing Activity Pae 27853 [5]: 0.3 µg/mL |
| GGG-D-Dab-cyclic(L-Dab-L-Dab-D-Leu-L-Phe-L-Dab-L-Dab-L-Leu) [GGG-Octapeptin] |  | 2 mg/mL | 2 mg/mL | 1 | 2 µg/mL | MIC (mg/ml) Kpn 700603 [2]: >0.128 mg/mL; MIC (mg/ml) Sau 29213 [6]: >0.128 mg/mL |
| (MAL)-(EG3)-GIGKFLKKAKKFGKAFVKILKK [peptide 21] |  |  |  |  |  | MIC μg/ml Eco 25922 [3]: 8 µg/mL |
